Reference: the supplement of paper PMC13207355

Key:
Details in all cases: exposure time: 72 h
E13 [1] = patient-derived glioblastoma stem cells of classical subtype; assay: surviving fraction (nuclei count normalised to DMSO); higher = more cells surviving (less toxic)
E21 [2] = patient-derived glioblastoma stem cells of mesenchymal subtype; assay: as above
E28 [3] = patient-derived glioblastoma stem cells of classical subtype; assay: as above
E34 [4] = patient-derived glioblastoma stem cells of proneural subtype; assay: as above
E57 [5] = patient-derived glioblastoma stem cells of mesenchymal subtype; assay: as above
FT3469 [6] = normal neural stem cell line; assay: as above
E13 [7] = assay: phenotypic distance (Euclidean, principal components) from DMSO controls (arbitrary units); higher = stronger morphological change
E21 [8] = assay: as above
E28 [9] = assay: as above
E34 [10] = assay: as above
E57 [11] = assay: as above
FT3469 [12] = assay: as above
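Wherever phenotypic distance (Euclidean, principal components) from DMSO controls is given: cell Painting imaging in 384-well plates, CellProfiler features reduced to at least 20 principal components, Euclidean distance versus same-plate DMSO vehicle wells (0.1% v/v), median over six images per well.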
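Wherever surviving fraction (nuclei count normalised to DMSO) is given: nuclei counted by high-content imaging of Hoechst-stained cells in laminin-coated 384-well plates, relative to 0.1% DMSO vehicle wells, with staurosporine as cell-death control.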

Cc1ccc(NC(=O)c2ccc3c(c2)OCCO3)cc1NC(=O)c1ccc2nc(OCCN3CCCC3)ccc2c1
Details	phenotypic distance	surviving fraction
E13 [1], 4.1 nM	–	0.567
E13 [1], 4.11523 nM	–	0.579
E13 [1], 12.3 nM	–	0.474
E13 [1], 12.34567901 nM	–	0.507
E13 [1], 37 nM	–	0.421
E13 [1], 37.037 nM	–	0.402
E13 [1], 111.1 nM	–	0.347
E13 [1], 111.1111111 nM	–	0.456
E13 [1], 333.3 nM	–	0.332
E13 [1], 333.333 nM	–	0.347
E13 [1], 1000 nM	–	0.2728
E13 [1], 3000 nM	–	0.245
E13 [7], 4.1 nM	2.33	–
E13 [7], 4.11523 nM	2.3	–
E13 [7], 12.3 nM	2.75	–
E13 [7], 12.34567901 nM	2.91	–
E13 [7], 37 nM	2.97	–
E13 [7], 37.037 nM	2.96	–
E13 [7], 111.1 nM	2.97	–
E13 [7], 111.1111111 nM	2.53	–
E13 [7], 333.3 nM	3.19	–
E13 [7], 333.333 nM	3.19	–
E13 [7], 1000 nM	4.14	–
E13 [7], 3000 nM	4.93	–
E21 [2], 4.1 nM	–	0.572
E21 [2], 4.11523 nM	–	0.511
E21 [2], 12.3 nM	–	0.385
E21 [2], 12.34567901 nM	–	0.434
E21 [2], 37 nM	–	0.402
E21 [2], 37.037 nM	–	0.406
E21 [2], 111.1 nM	–	0.276
E21 [2], 111.1111111 nM	–	0.306
E21 [2], 333.3 nM	–	0.28
E21 [2], 333.333 nM	–	0.23
E21 [2], 1000 nM	–	0.235
E21 [2], 3000 nM	–	0.159
E21 [8], 4.1 nM	1.96	–
E21 [8], 4.11523 nM	2.3	–
E21 [8], 12.3 nM	3.3	–
E21 [8], 12.34567901 nM	2.79	–
E21 [8], 37 nM	4.37	–
E21 [8], 37.037 nM	3.31	–
E21 [8], 111.1 nM	5.55	–
E21 [8], 111.1111111 nM	4.4	–
E21 [8], 333.3 nM	4.63	–
E21 [8], 333.333 nM	5.16	–
E21 [8], 1000 nM	4.03	–
E21 [8], 3000 nM	3.92	–
E28 [3], 4.1 nM	–	0.547
E28 [3], 4.11523 nM	–	0.493
E28 [3], 12.3 nM	–	0.385
E28 [3], 12.34567901 nM	–	0.432
E28 [3], 37 nM	–	0.366
E28 [3], 37.037 nM	–	0.346
E28 [3], 111.1 nM	–	0.309
E28 [3], 111.1111111 nM	–	0.32
E28 [3], 333.3 nM	–	0.309
E28 [3], 333.333 nM	–	0.242
E28 [3], 1000 nM	–	0.317
E28 [3], 3000 nM	–	0.285
E28 [9], 4.1 nM	2.24	–
E28 [9], 4.11523 nM	2.33	–
E28 [9], 12.3 nM	3.06	–
E28 [9], 12.34567901 nM	2.58	–
E28 [9], 37 nM	3.23	–
E28 [9], 37.037 nM	2.95	–
E28 [9], 111.1 nM	3.14	–
E28 [9], 111.1111111 nM	2.92	–
E28 [9], 333.3 nM	2.79	–
E28 [9], 333.333 nM	3.14	–
E28 [9], 1000 nM	2.41	–
E28 [9], 3000 nM	2.42	–
E34 [4], 4.1 nM	–	0.581
E34 [4], 4.11523 nM	–	0.432
E34 [4], 12.3 nM	–	0.436
E34 [4], 12.34567901 nM	–	0.574
E34 [4], 37 nM	–	0.548
E34 [4], 37.037 nM	–	0.385
E34 [4], 111.1 nM	–	0.505
E34 [4], 111.1111111 nM	–	0.555
E34 [4], 333.3 nM	–	0.486
E34 [4], 333.333 nM	–	0.376
E34 [4], 1000 nM	–	0.494
E34 [4], 3000 nM	–	0.464
E34 [10], 4.1 nM	1.52	–
E34 [10], 4.11523 nM	2.43	–
E34 [10], 12.3 nM	2.63	–
E34 [10], 12.34567901 nM	1.82	–
E34 [10], 37 nM	2.02	–
E34 [10], 37.037 nM	2.96	–
E34 [10], 111.1 nM	2.75	–
E34 [10], 111.1111111 nM	2.28	–
E34 [10], 333.3 nM	3	–
E34 [10], 333.333 nM	3.8	–
E34 [10], 1000 nM	2.97	–
E34 [10], 3000 nM	3.82	–
E57 [5], 4.1 nM	–	0.335
E57 [5], 4.11523 nM	–	0.321
E57 [5], 12.3 nM	–	0.23
E57 [5], 12.34567901 nM	–	0.214
E57 [5], 37 nM	–	0.296
E57 [5], 37.037 nM	–	0.268
E57 [5], 111.1 nM	–	0.215
E57 [5], 111.1111111 nM	–	0.277
E57 [5], 333.3 nM	–	0.209
E57 [5], 333.333 nM	–	0.246
E57 [5], 1000 nM	–	0.199
E57 [5], 3000 nM	–	0.17
E57 [11], 4.1 nM	2.44	–
E57 [11], 4.11523 nM	2.93	–
E57 [11], 12.3 nM	3.38	–
E57 [11], 12.34567901 nM	3.54	–
E57 [11], 37 nM	3.19	–
E57 [11], 37.037 nM	3.43	–
E57 [11], 111.1 nM	3.22	–
E57 [11], 111.1111111 nM	3.19	–
E57 [11], 333.3 nM	3.67	–
E57 [11], 333.333 nM	3.36	–
E57 [11], 1000 nM	3.79	–
E57 [11], 3000 nM	3.67	–
FT3469 [6], 4.1 nM	–	0.613
FT3469 [6], 4.11523 nM	–	0.62
FT3469 [6], 12.3 nM	–	0.72
FT3469 [6], 12.34567901 nM	–	0.67
FT3469 [6], 37 nM	–	0.636
FT3469 [6], 37.037 nM	–	0.618
FT3469 [6], 111.1 nM	–	0.608
FT3469 [6], 111.1111111 nM	–	0.667
FT3469 [6], 333.3 nM	–	0.674
FT3469 [6], 333.333 nM	–	0.615
FT3469 [6], 1000 nM	–	0.602
FT3469 [6], 3000 nM	–	0.484
FT3469 [12], 4.1 nM	2.71	–
FT3469 [12], 4.11523 nM	2.72	–
FT3469 [12], 12.3 nM	3.04	–
FT3469 [12], 12.34567901 nM	2.97	–
FT3469 [12], 37 nM	3.5	–
FT3469 [12], 37.037 nM	3.59	–
FT3469 [12], 111.1 nM	3.07	–
FT3469 [12], 111.1111111 nM	3.24	–
FT3469 [12], 333.3 nM	4.42	–
FT3469 [12], 333.333 nM	3.16	–
FT3469 [12], 1000 nM	2.96	–
FT3469 [12], 3000 nM	3.35	–
